Measured values taken from patent publication US20230024302A1, “2,3,5-TRISUBSTITUTED PYRAZOLO[1,5-A]PYRIMIDINE COMPOUNDS” (Arcus Biosciences, Inc., priority 2019, published 2023).

Tests used:
PI3Kγ = molecular target: T1, PI3Kγ (Homo sapiens, UniProt P48736); experiment: PI3Kγ cellular assay in THP-1 cells (AKT pS473 AlphaLISA); type: cell-based; conditions: Table 1, rhMCP-1 stimulated AKT pS473, read-out: cellular potency (PI3Kγ IC50)
T1 construct: host or cells: THP-1
In short: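 Endogenous AKT S473 phosphorylation, detected by AlphaLISA in lysates, serves as the PI3Kγ activity read-out in stimulated, serum-starved THP-1 cells (1.8×10^5/well).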

PI3Kγ (p120γ) = molecular target: T2, PI3Kγ (p120γ) (Homo sapiens, UniProt P48736); experiment: Inhibition of PI3K kinase activity (ADP Glo), PI3Kγ; conditions: Table 1, p120γ, read-out: biochemical potency (PI3Kγ IC50)
T2 construct: purchased Promega V1761
T2 sequence (P48736 whole entry): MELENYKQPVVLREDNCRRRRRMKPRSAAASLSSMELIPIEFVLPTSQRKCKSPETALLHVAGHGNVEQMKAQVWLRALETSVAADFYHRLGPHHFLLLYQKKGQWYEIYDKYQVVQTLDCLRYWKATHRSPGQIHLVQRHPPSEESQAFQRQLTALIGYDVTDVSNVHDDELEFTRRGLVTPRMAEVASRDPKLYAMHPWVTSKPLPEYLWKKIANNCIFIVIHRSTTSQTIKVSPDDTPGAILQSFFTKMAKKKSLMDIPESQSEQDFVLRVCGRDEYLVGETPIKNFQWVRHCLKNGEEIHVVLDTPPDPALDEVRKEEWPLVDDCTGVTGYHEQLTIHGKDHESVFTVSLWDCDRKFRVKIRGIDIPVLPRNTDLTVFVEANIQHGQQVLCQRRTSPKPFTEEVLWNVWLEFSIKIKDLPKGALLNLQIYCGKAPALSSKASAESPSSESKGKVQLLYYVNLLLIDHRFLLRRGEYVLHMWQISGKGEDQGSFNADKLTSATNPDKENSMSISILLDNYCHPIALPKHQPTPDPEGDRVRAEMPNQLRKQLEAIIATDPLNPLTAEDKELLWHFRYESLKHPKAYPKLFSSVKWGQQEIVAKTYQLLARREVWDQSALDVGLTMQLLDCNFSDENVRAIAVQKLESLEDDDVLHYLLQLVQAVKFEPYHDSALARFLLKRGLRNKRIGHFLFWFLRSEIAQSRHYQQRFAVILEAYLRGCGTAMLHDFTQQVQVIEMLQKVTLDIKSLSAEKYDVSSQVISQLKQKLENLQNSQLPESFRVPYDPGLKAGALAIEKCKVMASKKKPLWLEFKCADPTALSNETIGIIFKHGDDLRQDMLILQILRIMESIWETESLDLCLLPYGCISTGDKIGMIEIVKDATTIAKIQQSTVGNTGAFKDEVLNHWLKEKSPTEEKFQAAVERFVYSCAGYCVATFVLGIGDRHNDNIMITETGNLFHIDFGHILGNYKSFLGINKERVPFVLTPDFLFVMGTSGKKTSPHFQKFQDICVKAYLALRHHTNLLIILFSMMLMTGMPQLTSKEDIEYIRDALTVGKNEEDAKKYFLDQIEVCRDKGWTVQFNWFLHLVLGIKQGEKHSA
In short: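 IC50 values come from a 4-parameter nonlinear fit of ADP-Glo luminescence, which measures ADP produced as PIP2 is phosphorylated to PIP3. The p120γ enzyme (2× stock 8 nM) sat with compound 1 h at rt before substrate (2× stocks: 50 μM ATP, 0.1 mg/ml PIP2) was added. Phosphorylation then proceeded 60 min at rt.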

T1 sequence (P48736 whole entry): as above

IC50 (PI3Kγ)	IC50 (PI3Kγ (p120γ))	Compound
< 100 nM	< 100 nM	C[C@H](N1Cc2cc(-c3ccn4nc(N)c(C(=O)NC5COC5)c4n3)cc(NS(C)(=O)=O)c2C1=O)C(F)(F)F [Example 116, 2-Amino-5-{7-methanesulfonamido-1-oxo-2-[(2S)-1,1,1-trifluoropropan-2-yl]-2,3-dihydro-1H-isoindol-5-yl}-N-(oxetan-3-yl)pyrazolo[1,5-a]pyrimidine-3-carboxamide]
< 100 nM	< 100 nM	C[C@H](N1Cc2cc(-c3ccn4nc(N)c(C(=O)NC5(C#N)COC5)c4n3)cc(NS(C)(=O)=O)c2C1=O)C(F)(F)F [Example 117, (S)-2-Amino-N-(3-cyanooxetan-3-yl)-5-(7-(methylsulfonamido)-1-oxo-2-(1,1,1-trifluoropropan-2-yl)isoindolin-5-yl)pyrazolo[1,5-a]pyrimidine-3-carboxamide]
< 100 nM	< 100 nM	C[C@H](CO)NC(=O)c1c(N)nn2ccc(-c3cc4c(c(NS(C)(=O)=O)c3)C(=O)N([C@@H](C)C(F)(F)F)C4)nc12 [Example 118, 2-Amino-N-[(2R)-1-hydroxypropan-2-yl]-5-{7-methanesulfonamido-1-oxo-2-[(2S)-1,1,1-trifluoropropan-2-yl]-2,3-dihydro-1H-isoindol-5-yl}pyrazolo[1,5-a]pyrimidine-3-carboxamide]
< 100 nM	< 100 nM	CC[C@H](CO)NC(=O)c1c(N)nn2ccc(-c3cc4c(c(NS(C)(=O)=O)c3)C(=O)N([C@@H](C)C(F)(F)F)C4)nc12 [Example 119, 2-Amino-N-[(2R)-1-hydroxybutan-2-yl]-5-{7-methanesulfonamido-1-oxo-2-[(2S)-1,1,1-trifluoropropan-2-yl]-2,3-dihydro-1H-isoindol-5-yl}pyrazolo[1,5-a]pyrimidine-3-carboxamide]
< 100 nM	< 100 nM	C[C@H](N1Cc2cc(-c3ccn4nc(N)c(C(=O)N[C@@H](CO)C5CC5)c4n3)cc(NS(C)(=O)=O)c2C1=O)C(F)(F)F [Example 120, 2-Amino-N-((R)-1-cyclopropyl-2-hydroxyethyl)-5-(7-(methylsulfonamido)-1-oxo-2-((S)-1,1,1-trifluoropropan-2-yl)isoindolin-5-yl)pyrazolo[1,5-a]pyrimidine-3-carboxamide]
< 100 nM	< 100 nM	C[C@H](N1Cc2cc(-c3ccn4nc(N)c(C(=O)N[C@H]5C[C@H](O)C5)c4n3)cc(NS(C)(=O)=O)c2C1=O)C(F)(F)F [Example 121, 2-Amino-5-{7-methanesulfonamido-1-oxo-2-[(2S)-1,1,1-trifluoropropan-2-yl]-2,3-dihydro-1H-isoindol-5-yl}-N-[trans-3-hydroxycyclobutyl]pyrazolo[1,5-a]pyrimidine-3-carboxamide]
< 100 nM	< 100 nM	C[C@H](N1Cc2cc(-c3ccn4nc(N)c(C(=O)N[C@H]5CC[C@@](C)(O)CC5)c4n3)cc(NS(C)(=O)=O)c2C1=O)C(F)(F)F [Example 122, 2-Amino-5-{7-methanesulfonamido-1-oxo-2-[(2S)-1,1,1-trifluoropropan-2-yl]-2,3-dihydro-1H-isoindol-5-yl}-N-[cis-4-hydroxy-4-methylcyclohexyl]pyrazolo[1,5-a]pyrimidine-3-carboxamide]
< 100 nM	< 100 nM	CC[C@H](N1Cc2cc(-c3ccn4nc(N)c(C(=O)NC5COC5)c4n3)cc(NS(C)(=O)=O)c2C1=O)C(F)(F)F [Example 123, 2-Amino-5-{7-methanesulfonamido-1-oxo-2-[(2S)-1,1,1-trifluorobutan-2-yl]-2,3-dihydro-1H-isoindol-5-yl}-N-(oxetan-3-yl)pyrazolo[1,5-a]pyrimidine-3-carboxamide]
< 100 nM	< 100 nM	CC[C@H](N1Cc2cc(-c3ccn4nc(N)c(C(=O)NC5CC5)c4n3)cc(NS(C)(=O)=O)c2C1=O)C(F)(F)F [Example 124, 2-Amino-N-cyclopropyl-5-{7-methanesulfonamido-1-oxo-2-[(2S)-1,1,1-trifluorobutan-2-yl]-2,3-dihydro-1H-isoindol-5-yl}pyrazolo[1,5-a]pyrimidine-3-carboxamide]
